Laboratory results taken from patent US12336981B2, “Compounds and compositions for the inhibition of NAMPT” (Valo Health, Inc., priority 2010, dated 2025).
Like-named read-outs stand apart in the source and are kept apart here.

Columns and labels:
A2780 cells = experiment: In-vitro cell proliferation assay (SRB), A2780 cells; format: cell-based; settings: Homo sapiens, A2780, 72 h, A2780 cells, 72 hours, read-out: A2780 IC50
Summary of the method: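 SRB read-out: 6% TCA fix 1 h at 4° C., stain, Tris solubilize, A570. Media-only background subtracted; % inhibition from two compound concentrations.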

NAMPT = target: T1, NAMPT (Homo sapiens, UniProt P43490); experiment: Biochemical inhibition assay: NAMPT enzymatic reaction, NMN quantified by mass spectrometry; settings: read-out: Biochem IC50
T1 construct: His tag; host or cells: E. coli
Summary of the method: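 Inhibition of E. coli-expressed His-tagged human NAMPT, measured as NMN formation by mass spectrometry after a 30 min room-temperature reaction containing 1 μM NAM, 100 μM PRPP and 2.5 mM ATP.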

T1 sequence (P43490 whole entry): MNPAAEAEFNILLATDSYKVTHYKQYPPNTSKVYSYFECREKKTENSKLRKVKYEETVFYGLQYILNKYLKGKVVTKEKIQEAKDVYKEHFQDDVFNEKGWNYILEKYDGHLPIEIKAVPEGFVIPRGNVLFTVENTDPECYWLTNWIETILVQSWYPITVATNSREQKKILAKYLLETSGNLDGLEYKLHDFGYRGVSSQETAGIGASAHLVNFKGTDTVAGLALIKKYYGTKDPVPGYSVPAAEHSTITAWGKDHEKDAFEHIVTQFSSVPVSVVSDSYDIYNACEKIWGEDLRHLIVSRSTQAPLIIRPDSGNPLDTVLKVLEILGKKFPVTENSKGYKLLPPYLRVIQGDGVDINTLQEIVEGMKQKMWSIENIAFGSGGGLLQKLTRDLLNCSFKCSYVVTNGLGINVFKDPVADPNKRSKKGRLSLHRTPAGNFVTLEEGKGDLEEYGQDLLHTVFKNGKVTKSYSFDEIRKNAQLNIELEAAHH

| SMILES | IC50 (A2780 cells; SRB) [nM] | IC50 (NAMPT; NAMPT enzymatic reaction) [nM] | IC50 (NAMPT; NAMPT enzymatic assay) [nM] | IC50 (A2780 cells; SRB assay) [nM] |
| --- | --- | --- | --- | --- |
| COc1ccc(S(=O)(=O)c2ccc(CNC(=O)c3ccc4nccn4c3)cc2)cc1 [N-({4-[(4-methoxybenzene)sulfonyl]phenyl}methyl)imidazo[1,2-a]pyridine-6-carboxamide] | 8.66 | 9.74 |  |  |
| CN(C)c1ccc(S(=O)(=O)c2ccc(CNC(=O)c3cc4ccncc4s3)cc2)cn1 [N-({4-[6-(dimethylamino)pyridine-3-sulfonyl]phenyl}methyl)thieno[2,3-c]pyridine-2-carboxamide] | 0.6 |  | 1 |  |
| CCOc1ccc(NS(=O)(=O)c2ccc(CNC(=O)c3cc4cnccc4[nH]3)cc2)c(F)c1 [N-({4-[(4-ethoxy-2-fluorophenyl)sulfamoyl]phenyl}methyl)-1H-pyrrolo[3,2-c]pyridine-2-carboxamide] |  | 154 |  | 1600 |
| Cn1ncc2ccc(S(=O)(=O)c3ccc(CNC(=O)c4cc5ccncc5o4)cc3)cc21 [N-{[4-(1-methyl-1H-indazole-6-sulfonyl)phenyl]methyl}furo[2,3-c]pyridine-2-carboxamide] | 3.4 |  | 4.7 |  |
| O=C(NCc1ccc(S(=O)(=O)Nc2ccc3c(c2)OCCO3)cc1)c1cc2cnccc2[nH]1 [N-({4-[(2,3-dihydro-1,4-benzodioxin-6-yl)sulfamoyl]phenyl}methyl)-1H-pyrrolo[3,2-c]pyridine-2-carboxamide] |  | > 10000 |  | > 10000 |
| O=C(NCc1ccc(S(=O)(=O)c2cc(C(F)(F)F)ccc2OCc2ccccc2)cc1)c1cc2cnccc2[nH]1 | 25.9 |  | 130 |  |
| O=C(NCc1ccc(S(=O)(=O)c2ccccc2)cc1)c1cnc2[nH]ccc2c1 [N-{[4-(benzenesulfonyl)phenyl]methyl}-1H-pyrrolo[2,3-b]pyridine-5-carboxamide] |  | 1910 |  | > 30000 |
| Cn1cc(S(=O)(=O)c2ccc(CNC(=O)c3cnc4[nH]ncc4c3)cc2)cn1 [N-{[4-(1-methyl-1H-pyrazole-4-sulfonyl)phenyl]methyl}-1H-pyrazolo[3,4-b]pyridine-5-carboxamide] | 100 to 1000 |  | 182 |  |
| Cc1ccc(Cl)c(S(=O)(=O)c2ccc(CNC(=O)c3cnc4[nH]ncc4c3)cc2)c1 | 65.9 | 60.2 |  |  |
| Cc1cc(S(=O)(=O)c2ccc(CNC(=O)c3ccc4nccn4c3)cc2)ccc1F [N-({4-[(4-fluoro-3-methylbenzene)sulfonyl]phenyl}methyl)imidazo[1,2-a]pyridine-6-carboxamide] | 7.14 | 23.5 |  |  |
| CCNC(=O)c1cccc(S(=O)(=O)c2ccc(CNC(=O)c3cnc4nccn4c3)cc2)c1 | 65.5 |  | 3.1 |  |
| COc1cncc(S(=O)(=O)c2ccc(CNC(=O)c3cnc4[nH]ncc4c3)cc2)c1 [N-{[4-(5-methoxypyridine-3-sulfonyl)phenyl]methyl}-1H-pyrazolo[3,4-b]pyridine-5-carboxamide] | 16.7 |  | 41.4 |  |
| COc1cc(S(=O)(=O)c2ccc(CNC(=O)c3ccc4nccn4c3)cc2)ccc1Cl | 6 | 13.5 |  |  |
| COc1cccc(S(=O)(=O)c2ccc(CNC(=O)c3ccc4nccn4c3)cc2)c1 [N-({4-[(3-methoxybenzene)sulfonyl]phenyl}methyl)imidazo[1,2-a]pyridine-6-carboxamide] | 2.45 | 4.97 |  |  |
| O=C(NCc1ccc(S(=O)(=O)c2ccc3c(c2)OCO3)cc1)c1cc2ccncc2s1 [N-{[4-(2H-1,3-benzodioxole-5-sulfonyl)phenyl]methyl}thieno[2,3-c]pyridine-2-carboxamide] |  | 3 |  | 2.5 |
| CC(C)Oc1ccc(S(=O)(=O)c2ccc(CNC(=O)c3cnc4[nH]ncc4c3)cc2)cc1 [N-[(4-{[4-(propan-2-yloxy)benzene]sulfonyl}phenyl)methyl]-1H-pyrazolo[3,4-b]pyridine-5-carboxamide] | 6.6 |  | 8 |  |
| O=C(NCc1ccc(S(=O)(=O)c2ccccc2C(F)(F)F)cc1)c1cc2ccncc2s1 [N-[(4-{[2-(trifluoromethyl)benzene]sulfonyl}phenyl)methyl]thieno[2,3-c]pyridine-2-carboxamide] |  | 13 |  | 26 |
